Source: US20230159552A1, “[…] ITS ANALOGUES, METHODS FOR THEIR PREPARATION, AND METHODS OF USE” (priority 2020, published 2023)
Where two headings read alike, the source gives them in different places.

How the values were obtained:
HCT116/VM46 = assay: Cytotoxicity against HCT116/VM46 cell line (multi-drug resistant variant); assay type: cell-based, human
From the text: (§1) The results of the initial evaluation for cytotoxicity against various cancer cell lines of analogues 38a-f, along with those for 1, 36 and intermediate alcohol 35 are summarized in Table A. L1210 is a murine lymphocytic leukemia cell line. HCT116 and HCT116/VM46 are human colon cancer cell lines, with the latter being a multi-drug resistant variant of the former. MCF-7 is a human breast cancer cell line.

L1210 = assay: Cytotoxicity against L1210 cell line; assay type: cell-based; conditions: Mus musculus, murine lymphocytic leukemia cell line
From the text: as §1

MCF-7 = assay: Cytotoxicity against MCF-7 cell line; assay type: cell-based, human
From the text: as §1

HCT116 = assay: Cytotoxicity against HCT116 cell line; assay type: cell-based, human
From the text: as §1

[1] = HCT-116/VM46, multi-drug resistant human colon cancer cell line, read-out: Cell Line (IC50, nM) HCT116/ VM46
[2] = MCF7, human breast cancer cell line, read-out: Cell Line (IC50, nM) MCT-7
[3] = HCT-116, human colon cancer cell line, read-out: Cell Line (IC50, nM) HCT116

SMILES | IC50 (HCT116/VM46; [1]) | IC50 (L1210) | IC50 (MCF-7; [2]) | IC50 (HCT116; [3]) | fold less potent than 1 (HCT116; relative to meayamycin (1), cell line not given) | IC50 (HCT116/VM46; Homo sapiens, HCT-116/VM46, read-out: Cell Line (IC50, nM) HCT116/ VM46) | IC50 (MCF-7; Homo sapiens, MCF7, read-out: Cell Line (IC50, nM) MCT-7) | IC50 (HCT116; Homo sapiens, HCT-116, read-out: Cell Line (IC50, nM) HCT116)
CC(/C=C/[C@H]1OC(C)(C)C[C@@]2(CO2)[C@@H]1O)=C\C[C@@H]1O[C@H](C)[C@H](NC(=O)/C=C\[C@H](C)O)C[C@@H]1C [Compound 35] | 7.4 nM | 7.8 nM | 47 nM | 9.7 nM |  |  |  | 
CC(/C=C/[C@H]1OC(C)(C)C[C@@]2(CO2)[C@@H]1O)=C\C[C@@H]1O[C@H](C)[C@H](NC(=O)/C=C\[C@H](C)OC(=O)N2CCN(C)CC2)C[C@@H]1C [Compound 36] | 840 nM | 790 nM | 930 nM | 630 nM |  |  |  | 
CC(/C=C/[C@H]1OC(C)(C)C[C@@]2(CO2)[C@@H]1O)=C\C[C@@H]1O[C@H](C)[C@H](NC(=O)/C=C\[C@H](C)OC(=O)N2CCSCC2)C[C@@H]1C [Compound 38b] | 0.52 nM | 0.6 nM | 0.42 nM | 0.48 nM |  |  |  | 
CC(/C=C/[C@H]1OC(C)(C)C[C@@]2(CO2)[C@@H]1O)=C\C[C@@H]1O[C@H](C)[C@H](NC(=O)/C=C\[C@H](C)OC(=O)N2CCCCC2)C[C@@H]1C [Compound 38c] | 0.59 nM | 0.44 nM | 2.7 nM | 0.68 nM |  |  |  | 
CC(/C=C/[C@H]1OC(C)(C)C[C@@]2(CO2)[C@@H]1O)=C\C[C@@H]1O[C@H](C)[C@H](NC(=O)/C=C\[C@H](C)OC(=O)N(C)C)C[C@@H]1C [Compound 38d] | 0.53 nM | 0.58 nM | 0.39 nM | 0.54 nM |  |  |  | 
CC(/C=C/[C@H]1OC(C)(C)C[C@@]2(CO2)[C@@H]1O)=C\C[C@@H]1O[C@H](C)[C@H](NC(=O)/C=C\[C@H](C)OC(=O)c2ccccc2)C[C@@H]1C [Compound 38e] | 0.65 nM | 1.8 nM | 2.4 nM | 0.72 nM |  |  |  | 
CC(/C=C/[C@H]1OC(C)(C)C[C@@]2(CO2)[C@@H]1O)=C\C[C@@H]1O[C@H](C)[C@H](NC(=O)/C=C\[C@H](C)OC(=O)C(C)(C)C)C[C@@H]1C [Compound 38f] | 2.4 nM | 1.2 nM |  | 3.5 nM | 5 fold |  |  | 
CC(=O)O[C@@H](C)/C=C\C(=O)N[C@@H]1C[C@H](C)[C@H](C/C=C(C)/C=C/[C@H]2OC(C)(C)C[C@@]3(CO3)[C@@H]2O)O[C@@H]1C [Meayamycin (1), Meayamycin, reference compound] | 0.51 nM | 0.54 nM | 0.31 nM | 0.56 nM |  |  |  | 
CC(/C=C/[C@H]1OC(C)(C)C[C@@]2(CO2)[C@@H]1O)=C\C[C@@H]1O[C@H](C)[C@H](NC(=O)/C=C\[C@H](C)OC(=O)N2CCOCC2)C[C@@H]1C [Meayamycin B (38a), Meayamycin B] |  |  |  |  |  | 0.55 nM | 0.39 nM | 0.49 nM
